The target in the assay is T1, α2C-adrenoceptor (Homo sapiens, UniProt P18825).
T1 sequence (P18825 1-462): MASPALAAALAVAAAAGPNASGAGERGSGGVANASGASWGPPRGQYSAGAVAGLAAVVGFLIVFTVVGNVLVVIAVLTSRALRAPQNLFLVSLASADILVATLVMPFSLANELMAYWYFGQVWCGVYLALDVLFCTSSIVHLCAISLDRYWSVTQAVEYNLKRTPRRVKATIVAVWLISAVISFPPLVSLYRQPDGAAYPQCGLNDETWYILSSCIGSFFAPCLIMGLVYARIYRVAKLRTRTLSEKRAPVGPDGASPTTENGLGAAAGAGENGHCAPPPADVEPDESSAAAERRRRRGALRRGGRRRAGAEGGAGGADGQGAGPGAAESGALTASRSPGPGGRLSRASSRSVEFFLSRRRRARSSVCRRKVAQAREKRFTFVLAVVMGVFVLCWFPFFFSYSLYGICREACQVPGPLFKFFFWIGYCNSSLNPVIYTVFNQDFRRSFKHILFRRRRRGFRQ
Kind of assay: α2c-Adrenoceptor binding test (3H-MK-912 binding, HepG2 cell membrane fraction). More on the design: the membrane fraction of the cultured cells was used; endogenous in cells; host or cells: HepG2 (human hepatoma) cell membrane fraction. To be noted: 0.5 h, test compound 10^−7 mol/l, read-out: Inhibition ratio (%) against α2c-adrenoceptor binding. As for the experimental part:
Adrenoceptor Binding Activity (α2c-Adrenoceptor Binding Test)
This test was carried out according to the method of Schaak et al. [Journal of Pharmacological Experimental Therapeutics, Vol. 281, p. 983 (1997)] as slightly modified.
Human hepatocyto HepG2 cells were cultured in DMEM medium (GIBCO BRL) containing 10% fetal bovine serum (FBS), 100 units/ml penicillin and 100 μg/ml streptomycin, and the membrane fraction of the cultured cells was used. The cultured cells were washed with phosphate-buffered saline (PBS), then scraped with a scraper and recovered by centrifugation at 800 rpm for 5 minutes. To the cells was added a buffer [50 mmol/l tris(hydroxymethyl)aminomethane: Tris, 5 mmol/l ethylenediamine tetraacetic acid (EDTA), pH 7.5], and the cells were suspended using Polytron Homogenizer (Kinematica), followed by centrifugation at 39,000×g for 10 minutes. The precipitate thus obtained was re-suspended in the same amount of the buffer, and the cell suspension was obtained by centrifugation and removing the supernatant in a similar manner.
To 100 μl of the cell suspension were added 80 μl of tritium-labeled MK-912 (methyl-^3H: 2.89 TBq/mmol; New England Nuclear) (final concentration: 1.0 nmol/l) and 20 μl of a test compound. The mixture was allowed to stand at 25° C. for 30 minutes and then rapidly filtered by suction through a glass fiber filter treated with 0.3% polyethyleneimine (GF/C; Whatman). The filter was immediately washed 3 times with 200 μl of an ice-cooled buffer and transferred to a vial. A liquid scintillator (ULTIMA GOLD; Packard) was added thereto and the radioactivity was measured with a liquid scintillation counter (Packard).
The inhibition ratio of the test compound against the α2C-adrenoceptor binding (^3H-MK-912 binding) was calculated using the following equation.
Inhibition ratio (%)={1−(amount of the binding in the presence of the test compound−amount of the nonspecific binding)/(amount of the total binding−amount of the nonspecific binding)}×100
(Note) Amount of the total binding means the amount of radioactivity of ^3H-MK-912 bound in the absence of the test compound. Amount of the nonspecific binding means the amount of radioactivity of ^3H-MK-912 bound in the presence of 10 μmol/l Yohimbine (Sigma). Amount of the binding in the presence of the test compound means the amount of radioactivity of ^3H-MK-912 bound in the presence of varied concentrations of the test compound.
On to `Nc1ncc(CN2CCN(c3ccccc3)CC2)c2nc(-c3ccco3)nn12` [Compound 2, 5-Amino-2-(2-furyl)-8-(4-phenylpiperazin-1-ylmethyl)[1,2,4]triazolo[1,5-c]pyrimidine], for which the inhibition at 0.1 µM turned out to be 80%. The value for `Nc1ncc(CN2CCc3ccccc3C2)c2nc(-c3ccco3)nn12` [Compound 19, 5-Amino-2-(2-furyl)-8-(1,2,3,4-tetrahydroisoquinolin-2-ylmethyl)[1,2,4]triazolo[1,5-c]pyrimidine] was 96%; that for `Nc1ncc(CN2CCN(c3ncccn3)CC2)c2nc(-c3ccco3)nn12` [Compound 23, 5-Amino-2-(2-furyl)-8-[4-(2-pyrimidinyl)piperazin-1-ylmethyl][1,2,4]triazolo[1,5-c]pyrimidine] was 70%.

`Nc1ncc(CN2CCN(c3ccccc3F)CC2)c2nc(-c3ccco3)nn12` [Compound 45, 5-Amino-8-[4-(2-fluorophenyl)piperazin-1-ylmethyl]-2-(2-furyl)[1,2,4]triazolo[1,5-c]pyrimidine]: the inhibition at 0.1 µM came to 88%. Regarding `Nc1ncc(CN2CCN(c3ccccc3Cl)CC2)c2nc(-c3ccco3)nn12` [Compound 49, 5-Amino-8-[4-(2-chlorophenyl)piperazin-1-ylmethyl]-2-(2-furyl)[1,2,4]triazolo[1,5-c]pyrimidine], the inhibition at 0.1 µM stood at 91%. With `Cc1ccccc1N1CCN(Cc2cnc(N)n3nc(-c4ccco4)nc23)CC1` [Compound 55, 5-Amino-2-(2-furyl)-8-[4-(2-methylphenyl)piperazin-1-ylmethyl][1,2,4]triazolo[1,5-c]pyrimidine] the figure was 92%. The value for `N#Cc1ccccc1N1CCN(Cc2cnc(N)n3nc(-c4ccco4)nc23)CC1` [Compound 59, 5-Amino-8-[4-(2-cyanophenyl)piperazin-1-ylmethyl]-2-(2-furyl)[1,2,4]triazolo[1,5-c]pyrimidine] was 65%. Turning to `COc1ccc2c(c1)CCN(Cc1cnc(N)n3nc(-c4ccco4)nc13)C2` [Compound 89, 5-Amino-2-(2-furyl)-8-(6-methoxy-1,2,3,4-tetrahydroisoquinolin-2-ylmethyl)[1,2,4]triazolo[1,5-c]pyrimidine], the inhibition at 0.1 µM came to 86%. The value for `COCCNc1ncc(CN2CCc3ccccc3C2)c2nc(-c3ccco3)nn12` [Compound 127, 2-(2-Furyl)-5-(2-methoxyethylamino)-8-(1,2,3,4-tetrahydroisoquinolin-2-ylmethyl)[1,2,4]triazolo[1,5-c]pyrimidine] was 68%; that for `Nc1ncc(CN2CCN(c3ccccc3)CC2)c2nc(-c3cccnc3)nn12` [Compound 144, 5-Amino-8-(4-phenylpiperazin-1-ylmethyl)-2-(3-pyridyl)[1,2,4]triazolo[1,5-c]pyrimidine] was 75%; that for `Nc1ncc(CN2CCN(c3ccccc3)CC2)c2nc(C3CCCCC3)nn12` [Compound 166, 5-Amino-2-cyclohexyl-8-(4-phenylpiperazin-1-ylmethyl)[1,2,4]triazolo[1,5-c]pyrimidine] was 84%. The value for `COc1cc2c(cc1OC)CN(Cc1cnc(NCCCO)n3nc(-c4ccco4)nc13)CC2` [Compound 182, 8-(6,7-Dimethoxy-1,2,3,4-tetrahydroisoquinolin-2-ylmethyl)-2-(2-furyl)-5-(3-hydroxypropylamino)[1,2,4]triazolo[1,5-c]pyrimidine] was 72%.

Regarding `Cc1ccc2c(c1)CN(Cc1cnc(N)n3nc(-c4ccco4)nc13)CC2` [Compound 195, 5-Amino-2-(2-furyl)-8-(7-methyl-1,2,3,4-tetrahydroisoquinolin-2-ylmethyl)[1,2,4]triazolo[1,5-c]pyrimidine], the inhibition at 0.1 µM stood at 87%. The value for `Nc1ncc(CN2CCC(c3ccccc3)CC2)c2nc(-c3ccco3)nn12` [Compound 203, 5-Amino-2-(2-furyl)-8-(4-phenylpiperidinomethyl)[1,2,4]triazolo[1,5-c]pyrimidine] was 83%.

The values above are taken from patent US20040110826A1, “Receptor Antagonists” (priority 2001, published 2004).
